Experimental data from patent US11524966B1 (Valo Early Discovery, Inc., priority 2017, dated 2022).

Molecular target: T1, USP28 (USP28-5(1-1077)-TEV-6*His; LifeSensors) (Homo sapiens, UniProt Q96RU2)
T1 construct: construct USP28 (USP28-5(1-1077)-TEV-6*His; LifeSensors); TEV cleavage site (C); 6xHis (C); purchased LifeSensors
T1 sequence (Q96RU2 1-1077): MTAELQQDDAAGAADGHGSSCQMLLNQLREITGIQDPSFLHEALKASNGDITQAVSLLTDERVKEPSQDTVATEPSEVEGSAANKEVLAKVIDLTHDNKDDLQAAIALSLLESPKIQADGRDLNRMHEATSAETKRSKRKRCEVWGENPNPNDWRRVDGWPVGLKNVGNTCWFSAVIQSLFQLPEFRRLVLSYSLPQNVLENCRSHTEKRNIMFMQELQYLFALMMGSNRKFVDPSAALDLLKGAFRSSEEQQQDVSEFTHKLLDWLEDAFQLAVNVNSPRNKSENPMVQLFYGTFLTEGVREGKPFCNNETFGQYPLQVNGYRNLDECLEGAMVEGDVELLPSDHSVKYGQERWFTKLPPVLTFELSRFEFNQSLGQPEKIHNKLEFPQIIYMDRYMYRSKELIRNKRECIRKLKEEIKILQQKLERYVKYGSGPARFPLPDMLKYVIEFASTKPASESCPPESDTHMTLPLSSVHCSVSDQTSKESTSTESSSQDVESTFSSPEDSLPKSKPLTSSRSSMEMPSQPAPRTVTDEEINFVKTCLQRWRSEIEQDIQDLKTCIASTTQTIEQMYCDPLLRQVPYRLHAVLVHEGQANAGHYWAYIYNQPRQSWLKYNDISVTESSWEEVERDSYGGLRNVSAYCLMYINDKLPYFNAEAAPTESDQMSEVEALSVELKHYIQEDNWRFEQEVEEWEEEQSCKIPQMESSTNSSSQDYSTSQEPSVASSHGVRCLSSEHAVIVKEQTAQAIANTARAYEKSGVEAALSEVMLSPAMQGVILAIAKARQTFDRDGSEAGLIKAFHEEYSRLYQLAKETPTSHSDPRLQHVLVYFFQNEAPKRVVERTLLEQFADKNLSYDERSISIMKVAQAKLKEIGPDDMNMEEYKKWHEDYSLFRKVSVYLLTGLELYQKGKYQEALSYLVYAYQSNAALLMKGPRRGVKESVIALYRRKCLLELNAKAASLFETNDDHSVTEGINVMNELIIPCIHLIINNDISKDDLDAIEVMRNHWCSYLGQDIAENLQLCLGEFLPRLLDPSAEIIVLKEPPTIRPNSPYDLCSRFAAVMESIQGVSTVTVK
Assay: Ubiquitin-Rhodamine 110 Assay for USP28 Activity, Example A-1(b)
Format: biochemical
Conditions: Ubiquitin-Rhodamine 110 assay, Example A-1(b)
Procedure, shortened: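 Single-point screening used 10 μM compound with 90 min room-temperature incubation; follow-up dose-responses (25 μM top, 3-fold) used 75 pM USP28 1-1077 construct, 30 min compound preincubation, 25 nM Ub-Rh110, 20 min reaction, citric acid quench. Rh110 fluorescence normalised to no-enzyme and DMSO controls; IC50 from 4-parameter logistic fit.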

Row | SMILES | USP28 A-1(b) IC50 range
1 | Cc1ccc2c(N)c(C(=O)N[C@H]3COc4cc(N5C[C@@H](N)[C@@H](F)C5)ccc4C3)sc2n1 (single isomer, unassigned) [Example 3-5] | +++ (0.05-0.2 μM)
2 | Cc1ccc2c(N)c(C(=O)N[C@H]3COc4cc(N5C[C@@H](F)[C@@H](N)C5)ccc4C3)sc2n1 (single isomer, unassigned) [Example 3-6] | ++ (0.2-2 μM)
